According to US20250177566A1, “USE OF CHEMICAL EPIGENETIC MODIFIERS TO MODULATE GENE EXPRESSION” (The University of North Carolina at Chapel Hill, priority 2022, published 2025):

Key:
[1] = test system: AAV transgene expression (firefly luciferase); test: AAV regulation with first generation CEM, dual luciferase assay, HEK293T Renilla; assay type: cell-based, human; conditions: FIG. 12, 50, 200, 500, 1000 nM
Excerpt: It was investigated whether rAAV transgene expression can be epigenetically controlled. Rapid screening of CEM technology can be performed with dual liucierase assays. (FIG. 10). Briefly, a cell line can be stably transduced with Ef1a-Renilla, enabling normalization to cell number. The cells are then either infected with AAV or tranfected with plasmid and dosed with a chemical epigenetic modifier. Luminescence can then be measured with the Dual Lucieferase Reporter, commercially available from Promega. This approach is described in more detail in the methods section of the example. Gene activation can be described as normalized luciferase or fold change. A measure of total gene expression can be calculated by
Preliminary regulation of AAV with first generation CEMs is depicted in FIG. 11A. The prototype system is autogenous, saving casssette space. (FIG. 11B). […] Preliminary regulation of AAV with first generation CEMs in HEK293T Renilla cells using the cassette in FIG. 11B results are shown in FIG. 13, with multiplicity of infection (MOI)=number of viral genomes/cell.

CXCR4 protein = test: CXCR4 cell membrane protein expression in HCT116 (APC anti-CXCR4 antibody, flow cytometry); assay type: cell-based, human; conditions: for fold change, CXCR4 protein (CXCR4 gRNA vs NT gRNA): FIG. 3E, 7B-7D
Protocol: In addition, the change in CXCR4 protein expression was evaluated following CEM207 treatment at three different concentrations. CEM207 was chosen over CEM203 because of the lower concentration needed to reach a similar peak CXCR4 mRNA activation level. An APC anti-CXCR4 antibody was used to assess cell membrane CXCR4 protein expression via flow cytometry in dCas9 and MS2-FKBP*x2 stably infected HCT116 cells (FIG. 3E and FIGS. 7B-7D). CXCR4 protein levels were determined at 24, 48, and 72 hrs time points for each of the different concentrations of CEM207. […] Based on this protein expression data, it was concluded that the SLF*-CEMa technology can achieve effective gene-specific, dose-dependent activation at the mRNA and protein level.

BRD4 = target: T1, BRD4 (Homo sapiens, UniProt O60885+P62942); test: BRD4 ChIP-qPCR near the CXCR4 transcription start site, HCT116; assay type: cell-based; conditions: FIG. 8, 25 nM, 24 hrs
T1 construct: achieved via the accumulation of endogenous epigenetic machinery at the designed gRNA targeted gene locus; endogenous in cells; host or cells: HCT116 cells stably expressing dCas9 and MS2-FKBP*x2, transfected with CXCR4 or NT gRNA
Protocol: (§1) FIGS. 8A-8B show alamarBlue cell viability assays. HEK293T or HCT116 cells were plated in 96-well plates 24 hrs before chemical treatment of 0.001, 0.01, 0.1, 1, 10, 50, and 100 μM CEM207 was added. Another group of cells were treated with all concentrations of CEM207 mentioned above along with 200 nM CEM87 in all samples. After 4 days of chemical exposure, cell growth was measured by fluorescence. […] HCT116 cells were stably infected with dCas9 and MS2-FKBP*x2 constructs and transfected with CXCR4 gRNA. After 24 hrs of 25 nM CEM207 treatment, ChIP-qPCR was performed at different base pair distances from the transcription start site of CXCR4 gene. […] Error bars represent the standard deviation.
Given that SLF*-CEMa facilitates gene activation via recruitment of BET proteins including BRD4, BRD4 enrichment at a specific targeted gene locus was investigated to further validate the mechanism of CEM207. Based on the alamarBlue cell viability assay performed with HEK293T and HCT116 cells, CEM207 can have different toxicity effects on different cell lines after 4 days of exposure. […] The signal change was measured between samples when only CEM207 or gRNA are present and those where both are present. […] To determine outlier significance, a “z-score” distribution was calculated by taking the scaled means of the x- and y-axis values and calculated P values for each point within this distribution. […]

HCT116 cells = test: alamarBlue cell viability assay, HCT116; assay type: cell-based, human
Protocol: as §1
AlamarBlue cell viability assay. HEK293T or HCT116 cells were placed in black 96-well plates with clear bottom. 24 hrs later, media was exchanged to include 0.001, 0.01, 0.1, 1, 10, 50, 100 μM concentrations of CEM207, or all CEM207 concentrations above along with 200 nM CEM87. After 4 days of chemical exposure, alamarBlue Cell Viability Reagent (Invitrogen, DAL1025) was added to each well. Cells were incubated at 37° C. for 4 hrs and fluorescence was read using the TECAN Infinite F200 Fluorescence Microplate Reader. IC50 values were calculated using GraphPad Prism 9.

T1 sequence (P62942 2-108 limits assumed, other chains not shown): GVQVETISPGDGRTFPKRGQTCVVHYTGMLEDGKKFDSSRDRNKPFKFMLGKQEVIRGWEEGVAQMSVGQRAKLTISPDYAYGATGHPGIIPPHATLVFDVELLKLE

Structure (SMILES)	luminescence, fold change compared to no treatment [1]	time after CEM treatment of highest CXCR4 protein expression (CXCR4 protein; 24, 48, 72 hrs time points) [h]	fold change, CXCR4 protein (CXCR4 gRNA vs NT gRNA) (CXCR4 protein; 24 h time point, 5 nM) [fold]	fold change, CXCR4 protein (CXCR4 gRNA vs NT gRNA) (CXCR4 protein; 24 h time point, 25 nM) [fold]	fold change, CXCR4 protein (CXCR4 gRNA vs NT gRNA) (CXCR4 protein; 24 h time point, 50 nM) [fold]	fold change, CXCR4 protein (CXCR4 gRNA vs NT gRNA) (CXCR4 protein; 48 h time point, 5 nM) [fold]	fold change, CXCR4 protein (CXCR4 gRNA vs NT gRNA) (CXCR4 protein; 48 h time point, 25 nM) [fold]	fold change, CXCR4 protein (CXCR4 gRNA vs NT gRNA) (CXCR4 protein; 48 h time point, 50 nM) [fold]	fold change, CXCR4 protein (CXCR4 gRNA vs NT gRNA) (CXCR4 protein; 72 h time point, 5 nM) [fold]	fold change, CXCR4 protein (CXCR4 gRNA vs NT gRNA) (CXCR4 protein; 72 h time point, 25 nM) [fold]	fold change, CXCR4 protein (CXCR4 gRNA vs NT gRNA) (CXCR4 protein; 72 h time point, 50 nM) [fold]	concentration of maximum CXCR4 cell membrane protein expression (CXCR4 protein; remained the same at 50 nM) [nM]	fold change, BRD4 ChIP-qPCR (CXCR4 gRNA vs NT gRNA) (BRD4; +40 bp from CXCR4 TSS) [fold]	fold change, BRD4 ChIP-qPCR (CXCR4 gRNA vs NT gRNA) (BRD4; +300 bp from CXCR4 TSS) [fold]	IC50 (HCT116 cells; CEM207 alone, 4 days of exposure) [µM]	IC50 (HCT116 cells; CEM207 in the background of 200 nM CEM87, 4 days of exposure) [µM]
COc1ccc2c(c1)C(c1ccc(Cl)cc1)=N[C@@H](CC(=O)NCc1cn(CCOCCOCCOCCNC(=O)CCSCCC[C@@H]3/C=C(\C)C[C@H](C)C[C@H](OC)[C@H]4O[C@@](O)(C(=O)C(=O)N5CCCC[C@H]5C(=O)O[C@H](/C(C)=C/[C@@H]5CC[C@@H](O)[C@H](OC)C5)[C@H](C)[C@@H](O)CC3=O)[C@H](C)C[C@@H]4OC)nn1)c1nnc(C)n1-2 [CEM87, reference compound]	dose dependent increase in luminscence	–	–	–	–	–	–	–	–	–	–	–	–	–	–	–
CC[C@H](C(=O)N1CCCC[C@H]1C(=O)O[C@H](CCc1ccc(OC)c(OC)c1)c1cccc(OCC(=O)NCCOCCOCCNC(=O)C[C@@H]2N=C(c3ccc(Cl)cc3)c3c(sc(C)c3C)-n3c(C)nnc32)c1)c1cc(OC)c(OC)c(OC)c1 [CEM207, (R)-1-(3-((14-((S)-4-(4-Chlorophenyl)-2,3,9-trimethyl-6H-thieno[3,2-f][1,2,4]triazolo[4,3-a][1,4]diazepin-6-yl)-2,13-dioxo-6,9-dioxa-3,12-diazatetradecyl)oxy)phenyl)-3-(3,4-dimethoxyphenyl) propyl(S)-1-((S)-2-(3,4,5-trimethoxyphenyl)butanoyl) piperidine-2-carboxylate]	–	48	2.4	4.6	4.3	2.4	4.9	5.8	1.7	4.2	3.8	25	2.7	1.2	0.87	0.359
